Source: PMC4948010 (ACS Medicinal Chemistry Letters, 2016)
Each block holds one compound with its values, some of them ahead of it.

Legend:
human recombinant GK = biological target: T1, human recombinant GK (Homo sapiens, UniProt P35557); test: Glucokinase EC50 assay; assay type: biochemical; settings: compared with the other acyclic C5 analogues of Table 1
T1 sequence (P35557 1-465): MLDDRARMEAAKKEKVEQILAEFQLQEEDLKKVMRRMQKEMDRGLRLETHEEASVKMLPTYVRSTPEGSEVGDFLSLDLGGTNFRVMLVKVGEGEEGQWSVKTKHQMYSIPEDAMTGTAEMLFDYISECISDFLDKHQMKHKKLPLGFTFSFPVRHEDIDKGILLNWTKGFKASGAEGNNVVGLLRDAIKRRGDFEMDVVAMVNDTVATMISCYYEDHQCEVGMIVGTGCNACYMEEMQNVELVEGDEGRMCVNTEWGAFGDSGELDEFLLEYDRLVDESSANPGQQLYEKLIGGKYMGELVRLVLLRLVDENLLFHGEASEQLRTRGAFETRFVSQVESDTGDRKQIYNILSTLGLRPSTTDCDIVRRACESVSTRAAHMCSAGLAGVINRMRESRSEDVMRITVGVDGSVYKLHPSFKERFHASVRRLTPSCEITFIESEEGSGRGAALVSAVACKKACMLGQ

male Sprague–Dawley rats = test: Fed blood glucose test in male Sprague-Dawley rats; assay type: in vivo, rat; settings: doses 3, 10, 30 and 100 mg/kg oral
[1] = Metabolic identification studies; assay type: in vitro ADME
[2] = Intrinsic clearance in rat liver microsomes; assay type: in vitro ADME
ob/ob mice = test: Oral glucose tolerance test in ob/ob mice; assay type: in vivo, mouse; settings: doses 3, 10 and 30 mg/kg oral

loss in potency (human recombinant GK): approximately 5 fold
Compound: CNC(=O)Nc1cc(Oc2cncc(C)c2)c(C(C)CO)cn1 (centres unmarked) [Compound 5]

site of oxidation (metabolic identification) [1]: THP ring as one site of oxidation
Compound: CNC(=O)Nc1cc(Oc2cncc(OC)c2)c([C@H]2CCCOC2)cn1 [Compound 21]
blood glucose levels (male Sprague–Dawley rats): dose-proportional decrease

microsomal CLint [2]: 24 µL/min/mg
Compound: CNC(=O)Nc1cc(Oc2cncc(C)c2)c([C@H]2C[C@@H](O)C2)cn1 [Compound 7]
blood glucose levels during an oral glucose tolerance test (ob/ob mice): dose-proportional decrease
